Assay results as given in patent publication US20250032569A1, “COMPOSITION, IN PARTICULAR COSMETIC FORMULATION, COMPRISING A VERBASCOSIDE EXTRACT” (MEDENA AG, priority 2021, published 2025).

How the values were obtained:
Assay type in all cases: physicochemical
[1] = In vitro spectrophotometric SPF calculated by the Sayre equation (Eq. 1)
Protocol: Each sample (1 ml) was placed in a 1 cm quartz cell. The absorbance was measured between 250-600 nm at an interval of every 1 nm using a Varian UV/Vis spectrophotometer (Cary 50 Scan). The following parameters were measured and calculated for each sample assuming standard application to the skin—2 mg/cm^2: • the SPF values. • the critical wavelength λC • the UVA/UVB ratio 1. […]
Each sample (1 ml) was placed in a 1 cm quartz cell. The absorbance was measured between 250-600 nm at an interval of every 1 nm using a Varian UV/Vis spectrophotometer (Cary 50 Scan). The following parameters were measured and calculated for each sample assuming standard application to the skin—2 mg/cm^2: • the SPF values. • the critical wavelength λC • the UVA/UVB ratio
The SPF values in vitro were calculated according to the method described by Sayre et al., (Sayre, R M; Agin, P P; LeVee, G J; Marlowe, E. A comparison of in vivo and in vitro testing of sunscreening formulas, Photochem. Photobiol. 1979, 29, 559-566). The calculation was done using Equation 1: […]
where Ss(λ) is the spectral irradiance, Ser(λ) is the CIE erythema action spectrum and T(λ) is the transmission of the sunscreen. The values of Ss(λ) and Ser(λ) were taken from the literature (B. L. Diffey, J. Robson. A new substrate to measure sunscreen protection factors throughout the ultraviolet spectrum, J. Soc. Cosmet. Chem. 1989, 40, 127-133). […]
SPF values were calculated using Eq. 1 for sun protective cosmetics applied at 2 mg/cm^2 (standard application).
The same methods and equations as in the case of plant extracts were applied.
Solutions of sunscreens at concentrations 0.001% were prepared in duplicate and UV-visible absorption spectra were recorded over the range of 250-600 nm (FIG. 1). On the basis of these spectra, the transmission of the sunscreen (T) was found from monochromatic absorbance values at wavelength λ: T=10^−A(λ).
The SPF in vitro was calculated according to the method described by Sayre et al., (Sayre, R M; Agin, P P; LeVee, G J; Marlowe, E. A comparison of in vivo and in vitro testing of sunscreening formulas, Photochem. Photobiol. 1979, 29, 559-566) following equation 1: […]
where Ss(λ) is the spectral irradiance, Ser(λ) the CIE erythema action spectrum and T(λ) the trans-mission of the sunscreen. Data for Ss(λ) and Ser(λ) are available in the literature (B. L. Diffey, J. Robson. A new substrate to measure sunscreen protection factors throughout the ultraviolet spectrum, J. Soc. Cosmet. Chem. 1989, 40, 127-133).
The SPF values were calculated using Eq 1 with the application conditions 2 mg/cm^2 (Standard application recommended by the European Agency).
The SPF value for lotions were calculated using Eq. 1 for three application conditions at 2 mg/cm^2 (standard application), 2.5 mg/cm^2 and 3 mg/cm^2. In the same Table 22, critical wavelength and the UVA/UVB ratios are shown.

[2] = SPF calculated by modified Sayre method
Description: In the following Table 20, there are SPF values obtained in vitro spectrophotometrically, which have been calculated by a classical Sayre method (Sayre, R M; Agin, P P; LeVee, G J; Marlowe, E. A comparison of in vivo and in vitro testing of sunscreening formulas, Photochem. Photobiol. 1979, 29, 559-566) and modified Sayre method, which gives results similar to those obtained in the in vivo tests recommended by COLIPA.
• (1) For water insoluble chemical filters, the modified Sayre method gives results close to those calculated by Simulator-Calculator (BASF) and the in vivo tests. The Simulator-Calculator uses the modified Sayre method assuming an exponentiation equal to 0.827 (X^0.827). • (2) For water soluble natural filters, the same modified Sayre method would give results close to those obtained by the in vivo tests (predicted by Simulator-Calculator). Examples of Cosmetic Compositions with Fully Natural Sun Protective Factors • 1. Sun protective lotion SPF 50+, high UV-A protection • 2. Sun protective cream SPF 50+, high UV-A protection • 3. Sun protective serum for pregnant and milking women SPF 50+, high UV-A protection • 4. Sun protective milk for babies SPF 50+, high UV-A protection • 5. Sun protective lotion SPF 20-30, high UV-A protection for people with highly sensitive skin E. Analysis of Sun Protective Parameters of Two Lotions and Cream Containing Lippia citriodora Extract with 40% of Verbascoside.

[3] = Critical wavelength (λC) from absorption spectra (Eq. 2); conditions: for critical wavelength: chemical sunscreen, no concentration stated
Protocol: The Critical Wavelength λC is the wavelength, where the area under the absorbance spectrum for the irradiated product from 290 nm to λC is equal to 90% of the integral value of the absorbance spectrum from 290 to 400 nm and was calculated using Eq. 2:
where A (λ)=monochromatic absorbance values at wavelength λ. The critical wavelength was determined for all samples in order to assess a degree of UVA protection. In cases where the critical wavelength is lower than 370 nm, the protection from UVA is less evident.
The Critical Wavelength λC value for the test product was defined as that wavelength where the area under the absorbance spectrum of the sample from 290 nm to λC is 90% of the integral of the absorbance spectrum from 290 to 400 nm and is calculated using Eq. 2:
[formula] • A(λ)=monochromatic absorbance values at wavelength λ

[4] = UVA/UVB ratio from absorption spectra (Eq. 3) and Boots UVA Star Rating
Protocol: Critical Wavelength (λC) and the UVA/UVB ratios were also calculated from the absorption spectra and were collected in Table 2. […] According to these International indications, aqueous solutions of Haberlea rhodopensis with different concentrations of myconoside can be attributed to the group of good protection (2 UVA Star Rating).
In order to further characterize solutions as skin photo-protectors from UVA, the UVA/UVB ratio was calculated using Eq. 3: […]
In order to characterize the ability of creams to protect skin against UVA the UVA/UVB ratio was calculated using Eq. 3: […]

[5] = UV filter 0.5% in sun protective cosmetic (Table 20)
[6] = UV filter 1.0% in sun protective cosmetic (Table 20)
[7] = UV filter 2.5% in sun protective cosmetic (Table 20)
[8] = UV filter 5% in sun protective cosmetic (Table 20)
[9] = chemical UV filter 0.5% in sun protective solution (Tables 12-19)
[10] = chemical UV filter 1% in sun protective solution (Tables 12-19)
[11] = chemical UV filter 2.5% in sun protective solution (Tables 12-19)
[12] = chemical UV filter 5% in sun protective solution (Tables 12-19)
[13] = chemical UV filter 10% in sun protective solution (Tables 12-19)
[14] = chemical UV filter 0.5% in sun protective solution
[15] = chemical UV filter 1% in sun protective solution
[16] = chemical UV filter 2.5% in sun protective solution
[17] = chemical UV filter 5% in sun protective solution
[18] = chemical UV filter 10% in sun protective solution
[19] = UV filter 0.5% in sun protective cosmetic
[20] = UV filter 1.0% in sun protective cosmetic
[21] = UV filter 2.5% in sun protective cosmetic
[22] = UV filter 5% in sun protective cosmetic

SMILES | SPF values calculated by the Sayre equation [1, 5] | SPF values calculated by the Sayre equation [1, 6] | SPF values calculated by the Sayre equation [1, 7] | SPF values calculated by the Sayre equation [1, 8] | SPF values [1, 9] | SPF values [1, 10] | SPF values [1, 11] | SPF values [1, 12] | SPF values [1, 13] | Critical wavelength (λC) [3, 14] [nm] | Critical wavelength (λC) [3, 15] [nm] | Critical wavelength (λC) [3, 16] [nm] | Critical wavelength (λC) [3, 17] [nm] | Critical wavelength (λC) [3, 18] [nm] | critical wavelength [3] [nm] | SPF values calculated by Modified Sayre [2, 19] | SPF values calculated by Modified Sayre [2, 20] | SPF values calculated by Modified Sayre [2, 21] | SPF values calculated by Modified Sayre [2, 22] | other results
C[C@@H]1O[C@@H](O[C@@H]2[C@@H](O)[C@H](OCCc3ccc(O)c(O)c3)O[C@H](CO)[C@H]2OC(=O)/C=C/c2ccc(O)c(O)c2)[C@H](O)[C@H](O)[C@H]1O [Verbascoside, β-(3′,4′-dihydroxyphenyl)ethyl-O-α-L-rhamnopyranosyl (1->3)-β-D-(4-O-caffeoyl)-glucopyranoside] | – | – | – | – | – | – | – | – | – | – | – | – | – | – | – | – | – | – | – | SPF values calculated by the Sayre equation ([1]; verbascoside or its analogues from plant extracts 1.0% in sun protective cosmetic (Table 20)): 3.9; SPF values calculated by the Sayre equation ([1]; verbascoside or its analogues from plant extracts 2.5% in sun protective cosmetic (Table 20)): 23; SPF values calculated by the Sayre equation ([1]; verbascoside or its analogues from plant extracts 5% in sun protective cosmetic (Table 20)): 110; SPF values calculated by the Sayre equation ([1]; verbascoside or its analogues from plant/plant cell culture extracts 0.5% in sun protective cosmetic (Table 20)): 2.0; SPF values calculated by Modified Sayre ([2]; verbascoside or its analogues from plant extracts 0.5% in sun protective cosmetic, SPF = a*X^0.827): 2.2; SPF values calculated by Modified Sayre ([2]; verbascoside or its analogues from plant extracts 1.0% in sun protective cosmetic): 3.9; SPF values calculated by Modified Sayre ([2]; verbascoside or its analogues from plant extracts 2.5% in sun protective cosmetic): 8.3; SPF values calculated by Modified Sayre ([2]; verbascoside or its analogues from plant extracts 5% in sun protective cosmetic): 14.8; SPF values calculated by Modified Sayre ([2]; verbascoside or its analogues from plant extracts 8% in sun protective cosmetic): 22; SPF values calculated by Modified Sayre ([2]; verbascoside or its analogues from plant extracts 10% in sun protective cosmetic): 26; SPF values calculated by Modified Sayre ([2]; verbascoside or its analogues from plant extracts 12% in sun protective cosmetic): 31; SPF values calculated by Modified Sayre ([2]; verbascoside or its analogues from plant extracts 20% in sun protective cosmetic): 52
CCCCC(CC)COC(=O)c1ccc(Nc2nc(Nc3ccc(C(=O)NC(C)(C)C)cc3)nc(Nc3ccc(C(=O)OCC(CC)CCCC)cc3)n2)cc1 (stereo not drawn) [diethylhexyl butamido triazone, Diethylhexyl butamido triazone] | 3.2 | 9.0 | 39 | 98 | 4.1 | 10 | 23 | 44 | 131 | 337 | 337 | 337 | 337 | 337 | 337 | 3.2 | 4.6 | 7.4 | 10.6 | SPF values calculated by the Sayre equation ([1]; UV filter 10% in sun protective cosmetic (Table 20)): 394; SPF values ([1]; chemical UV filter 10% in sun protective solution (Tables 12-19), listed as ethylhexyl butamido triazone): 137; SPF values calculated by Modified Sayre ([2]; UV filter 10% in sun protective cosmetic): 15.3
CCCCC(CC)COC(=O)c1ccc(Nc2nc(Nc3ccc(C(=O)OCC(CC)CCCC)cc3)nc(Nc3ccc(C(=O)OCC(CC)CCCC)cc3)n2)cc1 (stereo not drawn) [ethylhexyl triazone, Ethylhexyl triazone] | 2.8 | 8 | 69 | 389 | 5.2 | 14 | 33 | 74 | 271 | 341 | 341 | 341 | 341 | 341 | 341 | 2.8 | 4.1 | 6.8 | 10.1 | SPF values ([1]; chemical UV filter 2.5% in sun protective solution (Tables 12-19), listed as ethyl hexyl triazone): 44; UVA/UVB [4, 14]: 0.21; UVA/UVB [4, 15]: 0.21; UVA/UVB [4, 16]: 0.21; UVA/UVB [4, 17]: 0.21; UVA/UVB [4, 18]: 0.21; ratio UVA/UVB ([4]; chemical sunscreen, no concentration stated): 0.21
